Test results taken from patent US10590105B2, “1,3-dihydroxy-phenyl derivatives useful as immunomodulators” (BRISTOL-MYERS SQUIBB COMPANY, priority 2016, dated 2020).
Where two headings read alike, the source gives them in different places.

Molecular target: PD-1/PD-L1 interaction (PD-1-Ig / PD-L1-His) (Homo sapiens (Human), UniProt Q9NZQ7)
Experiment: PD-1/PD-L1 Homogenous Time-Resolved Fluorescence (HTRF) binding assay
Details: PD-1/PD-L1 HTRF binding assay, read-out: Range or IC50
From the text: The ability of the compounds of formula (I) to bind to PD-L1 was investigated using a PD-1/PD-L1 Homogenous Time-Resolved Fluorescence (HTRF) binding assay.
Homogenous Time-Resolved Fluorescence (HTRF) Binding Assay.
The interaction of PD-1 and PD-L1 can be assessed using soluble, purified preparations of the extracellular domains of the two proteins. The PD-1 and PD-L1 protein extracellular domains were expressed as fusion proteins with detection tags, for PD-1, the tag was the Fc portion of Immunoglobulin (PD-1-Ig) and for PD-L1 it was the 6 histidine motif (PD-L1-His). All binding studies were performed in an HTRF assay buffer consisting of dPBS supplemented with 0.1% […] bovine serum albumin and 0.05% (v/v) Tween-20. For the h/PD-L1-His binding assay, inhibitors were pre-incubated with PD-L1-His (10 nM final) for 15 m in 4 μl of assay buffer, followed by addition of PD-1-Ig (20 nM final) in 1 μl of assay buffer and further incubation for 15 m. HTRF detection was achieved using europium crypate-labeled anti-Ig (1 nM final) and allophycocyanin (APC) labeled anti-His (20 nM final). Antibodies were diluted in HTRF detection buffer and 5 μl was dispensed on top of the binding reaction. The reaction mixture was allowed to equilibrate for 30 minutes and the resulting signal (665 nm/620 nm ratio) was obtained using an EnVision fluorometer. Additional binding assays were established between the human proteins PD-1-Ig/PD-L2-His (20 & 5 nM, respectively) and CD80-His/PD-L1-Ig (100 & 10 nM, respectively).
Recombinant Proteins. Human PD-1 (25-167) with a C-terminal human Fc domain of immunoglobulin G (Ig) epitope tag [hPD-1 (25-167)-3S-IG] and human PD-L1 (18-239) with a C-terminal His epitope tag [hPD-L1(18-239)-TVMV-His] were expressed in HEK293T cells and purified sequentially by ProteinA affinity chromatography and size exclusion chromatography. Human PD-L2-His and CD80-His was obtained through commercial sources.
Ranges are as follows: A=0.001 to 0.010 micromolar; B=0.011 to 0.150 micromolar; C=0.151 to 10 micromolar.

PD-1/PD-L1 interaction (PD-1-Ig / PD-L1-His), sequence (Q9NZQ7 other isoform, or with tags, fused parts or gaps): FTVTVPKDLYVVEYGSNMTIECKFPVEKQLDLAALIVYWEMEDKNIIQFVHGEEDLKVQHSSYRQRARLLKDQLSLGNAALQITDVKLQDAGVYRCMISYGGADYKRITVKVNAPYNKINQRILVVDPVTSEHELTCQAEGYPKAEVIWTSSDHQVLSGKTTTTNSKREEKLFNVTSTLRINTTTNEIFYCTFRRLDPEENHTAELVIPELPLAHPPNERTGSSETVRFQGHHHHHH

Row | Molecule | IC50 (value given as range class) | IC50 (value given as number)
1 | Cc1c(COc2cc(OCc3cncc(C#N)c3)c(CNC(C)(CO)CO)cc2Cl)cccc1-c1nccc(OCCCN2CC[C@@H](O)C2)c1Cl [Example 2002, (R)-5-((4-chloro-5-((3-(3-chloro-4-(3-(3-hydroxypyrrolidin-1-yl)propoxy)pyridin-2-yl)-2-methylbenzyl)oxy)-2-(((1,3-dihydroxy-2-methylpropan-2-yl)amino)methyl)phenoxy)methyl)nicotinonitrile] | 1 to 10 nM | –
2 | Cc1c(COc2cc(OCc3cncc(C#N)c3)c(CN[C@](C)(CO)C(=O)O)cc2Cl)cccc1-c1ccc2ccoc2c1 [Example 1019, (R)-2-((4-((3-(benzofuran-6-yl)-2-methylbenzyl)oxy)-5-chloro-2-((5-cyanopyridin-3-yl)methoxy)benzyl)amino)-3-hydroxy-2-methylpropanoic acid] | 1 to 10 nM | –
3 | Cc1nn(-c2cccc(COc3cc(OCc4cncc(C#N)c4)c(CN4CC[C@@H](O)C4)cc3Cl)c2C)c(C)c1CN1CC[C@@H](O)C1 [Example 2007, 5-((4-chloro-2-(((R)-3-hydroxypyrrolidin-1-yl)methyl)-5-((3-(4-(((R)-3-hydroxypyrrolidin-1-yl)methyl)-3,5-dimethyl-1H-pyrazol-1-yl)-2-methylbenzyl)oxy)phenoxy)methyl)nicotinonitrile] | 151 to 10000 nM | –
4 | Cc1c(OCCCN2CC[C@@H](O)C2)cccc1-c1ccnc(COc2cc(OCc3cncc(C#N)c3)c(CN3CCCC[C@H]3C(=O)O)cc2Cl)c1C [Example 2011, (S)-1-(5-chloro-2-((5-cyanopyridin-3-yl)methoxy)-4-((4-(3-(3-((R)-3-hydroxypyrrolidin-1-yl)propoxy)-2-methylphenyl)-3-methylpyridin-2-yl)methoxy)benzyl)piperidine-2-carboxylic acid] | 11 to 150 nM | –
5 | Cc1c(COc2cc(OCc3cncc(C#N)c3)c(CNC(C)(CO)CO)cc2Cl)cncc1-c1cccc(OCCCN2CC[C@@H](O)C2)c1C [Example 2008, (R)-5-((4-chloro-2-(((1,3-dihydroxy-2-methylpropan-2-yl)amino)methyl)-5-((5-(3-(3-(3-hydroxypyrrolidin-1-yl)propoxy)-2-methylphenyl)-4-methylpyridin-3-yl)methoxy)phenoxy)methyl)nicotinonitrile] | 1 to 10 nM | –
6 | Cc1c(COc2cc(OCc3cncc(C#N)c3)c(CN[C@](C)(CO)C(=O)O)cc2Cl)cccc1-c1ccc2nccnc2c1 [Example 1035, (R)-2-((5-chloro-2-((5-cyanopyridin-3-yl)methoxy)-4-((2-methyl-3-(quinoxalin-6-yl)benzyl)oxy)benzyl)amino)-3-hydroxy-2-methylpropanoic acid] | 1 to 10 nM | –
7 | Cc1c(COc2cc(OCc3cncc(C#N)c3)c(CN[C@](C)(CO)C(=O)O)cc2Cl)cccc1-c1ccc2oc(CCN3CC[C@@H](O)C3)nc2c1 [Example 1028, (R)-2-((5-chloro-2-((5-cyanopyridin-3-yl)methoxy)-4-((3-(2-(2-((R)-3-hydroxypyrrolidin-1-yl)ethyl)benzo[d]oxazol-5-yl)-2-methylbenzyl)oxy)benzyl)amino)-3-hydroxy-2-methylpropanoic acid] | 1 to 10 nM | –
8 | Cc1c(COc2cc(OCc3cncc(C#N)c3)c(CN3CCCC[C@H]3C(=O)O)cc2Cl)cccc1-c1cccn(CCCN2CC[C@@H](O)C2)c1=O [Example 1039, (S)-1-(5-chloro-2-((5-cyanopyridin-3-yl)methoxy)-4-((3-(1-(3-((R)-3-hydroxypyrrolidin-1-yl)propyl)-2-oxo-1,2-dihydropyridin-3-yl)-2-methylbenzyl)oxy)benzyl)piperidine-2-carboxylic acid] | 151 to 10000 nM | –
9 | Cc1c(COc2cc(OCc3cncc(C#N)c3)c(CN[C@](C)(CO)C(=O)O)cc2Cl)cccc1-c1ccc2[nH]cnc2c1 [Example 1024, (R)-2-((4-((3-(1H-benzo[d]imidazol-5-yl)-2-methylbenzyl)oxy)-5-chloro-2-((5-cyanopyridin-3-yl)methoxy)benzyl)amino)-3-hydroxy-2-methylpropanoic acid] | – | 135 nM
10 | Cc1c(COc2cc(OCc3cncc(C#N)c3)c(CN[C@](C)(CO)C(=O)O)cc2Cl)cccc1-c1ccc2cccnc2c1 [Example 1001, (R)-2-((5-chloro-2-((5-cyanopyridin-3-yl)methoxy)-4-((2-methyl-3-(quinolin-7-yl)benzyl)oxy)benzyl)amino)-3-hydroxy-2-methylpropanoic acid] | 11 to 150 nM | –
11 | Cc1c(COc2cc(OCc3cncc(C#N)c3)c(CN[C@](C)(CO)C(=O)O)cc2Cl)cccc1-c1cnc2ccc(Br)cc2n1 [Example 1010, (R)-2-((4-((3-(7-bromoquinoxalin-2-yl)-2-methylbenzyl)oxy)-5-chloro-2-((5-cyanopyridin-3-yl)methoxy)benzyl)amino)-3-hydroxy-2-methylpropanoic acid] | – | 1570 nM
12 | Cc1c(COc2cc(OCc3cncc(C#N)c3)c(CN[C@@](C)(CO)C(=O)O)cc2Cl)cccc1-c1ccc2nccnc2c1 [Example 1036, (S)-2-((5-chloro-2-((5-cyanopyridin-3-yl)methoxy)-4-((2-methyl-3-(quinoxalin-6-yl)benzyl)oxy)benzyl)amino)-3-hydroxy-2-methylpropanoic acid] | 1 to 10 nM | –
13 | Cc1c(COc2cc(OCc3cncc(C#N)c3)c(CNC(C)(C)C(=O)O)cc2Cl)cccc1-c1ccc2scnc2c1 [Example 1022, 2-((4-((3-(benzo[d]thiazol-5-yl)-2-methylbenzyl)oxy)-5-chloro-2-((5-cyanopyridin-3-yl)methoxy)benzyl)amino)-2-methylpropanoic acid] | 11 to 150 nM | –
14 | Cc1c(COc2cc(OCc3cncc(C#N)c3)c(CN3CCCC[C@H]3C(=O)O)cc2Cl)cccc1-c1cccc(OCCCN2CC[C@@H](O)C2)n1 [Example 1030, (S)-1-(5-chloro-2-((5-cyanopyridin-3-yl)methoxy)-4-((3-(6-(3-((R)-3-hydroxypyrrolidin-1-yl)propoxy)pyridin-2-yl)-2-methylbenzyl)oxy)benzyl)piperidine-2-carboxylic acid] | 151 to 10000 nM | –
15 | Cc1c(COc2cc(OCc3cncc(C#N)c3)c(CN[C@](C)(CO)C(=O)O)cc2Cl)cccc1-c1ccc2occc2c1 [Example 1013, (R)-2-((4-((3-(benzofuran-5-yl)-2-methylbenzyl)oxy)-5-chloro-2-((5-cyanopyridin-3-yl)methoxy)benzyl)amino)-3-hydroxy-2-methylpropanoic acid] | 11 to 150 nM | –
16 | Cc1c(COc2cc(OCc3cncc(C#N)c3)c(CN[C@@H](CCCNC(=N)N)C(=O)O)cc2Cl)cccc1-c1ccc2occc2c1 [Example 1014, (S)-2-((4-((3-(benzofuran-5-yl)-2-methylbenzyl)oxy)-5-chloro-2-((5-cyanopyridin-3-yl)methoxy)benzyl)amino)-5-guanidinopentanoic acid] | 151 to 10000 nM | –
17 | 2-((5-chloro-2-((5-cyanopyridin-3-yl)methoxy)-4-((3-(1-(2-(dimethylamino)ethyl)-1H-benzo[d]imidazol-6-yl)-2-methylbenzyl)oxy)benzyl)amino)-2-methylpropanoic acid and 2-((5-chloro-2-((5-cyanopyridin-3-yl)methoxy)-4-((3-(1-(2-(dimethylamino)ethyl)-1H-benzo[d]imidazol-5-yl)-2-methylbenzyl)oxy)benzyl)amino)-2-methylpropanoic acid [Example 1026] | 151 to 10000 nM | –
18 | Cc1c(OCCCN2CCCCC2)cccc1-c1ccnc(COc2cc(OCc3cncc(C#N)c3)c(CN[C@@](C)(CO)C(=O)O)cc2Cl)c1C [Example 2015, (S)-2-((5-chloro-2-((5-cyanopyridin-3-yl)methoxy)-4-((3-methyl-4-(2-methyl-3-(3-(piperidin-1-yl)propoxy)phenyl)pyridin-2-yl)methoxy)benzyl)amino)-3-hydroxy-2-methylpropanoic acid] | 1 to 10 nM | –
19 | Cc1c(OCCCN2CCCCC2)cccc1-c1ccnc(COc2cc(OCc3cncc(C#N)c3)c(CN3CCCC[C@H]3C(=O)O)cc2Cl)c1C [Example 2014, (S)-1-(5-chloro-2-((5-cyanopyridin-3-yl)methoxy)-4-((3-methyl-4-(2-methyl-3-(3-(piperidin-1-yl)propoxy)phenyl)pyridin-2-yl)methoxy)benzyl)piperidine-2-carboxylic acid] | 11 to 150 nM | –
20 | Cc1c(COc2cc(OCc3cncc(C#N)c3)c(CNC(C)(C)C(=O)O)cc2Cl)cccc1-c1ccc2ncoc2c1 [Example 1016, 2-((4-((3-(benzo[d]oxazol-6-yl)-2-methylbenzyl)oxy)-5-chloro-2-((5-cyanopyridin-3-yl)methoxy)benzyl)amino)-2-methylpropanoic acid] | 1 to 10 nM | –
